# Results published in patent US20040259934A1, “Inhibiting Coronaviridae viral replication and treating Coronaviridae viral infection with nucleoside compounds” (priority 2003, published 2004).
# Experiments:
# Human coronavirus OC43 [1] = assay: Neutral red uptake assay against a coronavirus; assay type: cell-based; conditions: Betacoronavirus 1, OC43 / SC1, BSC-1
# Protocol: (§1) The assays employed to measure activity against coronavirus are described below (wherein CPE=cytopathic effect; FBS=fetal bovine serum; MEM=minimal essential medium; MOI=multiplicity of infection; and NR=neutral red):
# (§2) Human coronavirus OC43 was obtained from the American Type Culture Collection (ATCC, Manassas, Va., USA). This virus was originally isolated from the tracheal washings of a person with cold-like symptoms.
# (§3) B-SC-1 cells propagated from adult African green kidney cells were grown in MEM supplemented with 0.1% NaHCO3 and 10% FBS. When performing antiviral assays, serum was reduced to 2% and 50 μg/mL gentamicin was added to the medium.
# After performing the CPE inhibition assay above, an additional cytopathic detection method was used, in which medium was removed from each well of a plate scored for CPE from a CPE inhibition assay, 0.034% NR was added to each well of the plate and the plate incubated for 2 hr at 37° C. in the dark. The NR solution was then removed from the wells. After rinsing and aspirating to dryness, the remaining dye was extracted for 30 min at room temperature in the dark from the cells using absolute ethanol buffered with Sörenson citrate buffer. […] Absorbances at 540 nm and 450 nm were read with a microplate reader (Bio-Tek EL 1309; Bio-Tek Instruments, Inc., Winooski, Vt.). Absorbance values were expressed as percentages of untreated controls and EC50 and IC50 values were calculated by regression analysis.
# Human coronavirus OC43 [2] = assay: Cytopathic effect (CPE) inhibition assay against a coronavirus; assay type: cell-based; conditions: Betacoronavirus 1, OC43 / SC1, BSC-1, 144 h
# Protocol: as §1, §2, §3
# Each compound was diluted in MEM using a four log dilution series (i.e., 100, 10, 1.0, 0.1 μg/ml) and 100 μL added to the appropriate wells of a 96 well cell culture plate with confluent cells (see plate format below). The coronavirus was diluted in MEM 2% FBS to an MOI=0.001 in a volume of 100 μL and added immediately to plate (usually within 5 minutes of drug addition). […] The plates were then scored for virus cytopathic effect at each dilution of compound tested. The 50% effective concentration (EC50) was calculated by regression analysis using the means of the CPE ratings at each concentration of compound.
Compound,EC50 (Human coronavirus OC43 [1]),EC50 (Human coronavirus OC43 [2])
C[C@@]1(O)[C@H](O)[C@@H](CO)O[C@H]1n1ccc(N)nc1=O [2′-C-methylcytidine],≤ 10 µM,< 100 µM
C[C@@]1(O)[C@H](O)[C@@H](CO)O[C@H]1n1cnc2c(N)ncnc21 [2′-C-methyladenosine],≤ 10 µM,< 100 µM
"C[C@@]1(O)[C@H](O)[C@@H](CO)O[C@H]1n1ccc2c(N)ncnc21 [Example 1, 4-Amino-7-(2-C-methyl-β-D-ribofuranosyl)-7H-pyrrolo[2,3-d]pyrimidine]",≤ 10 µM,< 100 µM
